Results taken from patent US20250257357A1, “TREATMENT OF H3.3-MUTANT BRAIN CANCER WITH PNKP INHIBITORS” (UNIVERSITE PARIS CITE, priority 2022, published 2025).

Tested on: Hela cells
Assay: RAD51 and 53BP1 repair foci by immunofluorescence in Hela cells with EZH2 inhibition
Assay type: cell-based, human
Conditions: 72 h, 1 μM, damaged with camptothecin (3 h, 0.1 μM), FIG. 2B
Protocol: Camptothecin (CPT, Sigma-Aldrich) was used at 0.1 μM for 3 h, or at 1 μM for 1 or 3 h for iPOND in human cells, and at 5 or 10 μM in yeast cells; hydroxyurea (HU, Sigma-Aldrich) at 2 mM for 3 h; mitomycin C (MMC, Sigma-Aldrich) at 200 ng/ml and 25 ng/ml for 24 h for repair foci analyses and metaphase spreads, respectively; bleomycin (Bleo, Sigma-Aldrich) at 20 µg/mL for 3 h. An overnight treatment with 2 mM Thymidine followed by 3 h release in fresh medium was used to enrich cells in S phase for iPOND experiments (70-75% of cells were in S phase as evaluated by FACS). The EZH2 inhibitor GSK126 (EZH2i, Selleckchem) was used at 1 μM for 72 h.
Cells grown on glass coverslips (VWR) were either fixed directly with 2% paraformaldehyde (PFA) and permeabilized with 0.2% Triton X-100 in PBS or pre-extracted before fixation with 0.5% Triton X-100 in CSK buffer (Cytoskeletal buffer: 10 mM PIPES pH 7.0, 100 mM NaCl, 300 mM sucrose, 3 mM MgCl2) to remove soluble proteins (not bound to chromatin) and then fixed with 2% PFA. […] Images were mounted with Adobe Photoshop applying the same treatment of fluorescence levels to all images from the same experiment. […] The position of the LacO array was determined based on mCherry-LacR signal. DNA repair and PLA foci were identified and counted by using the find maxima function (Fiji software), on maximum intensity z-projections in the case of PLA foci. […]

CC[C@H](C)n1cc(C)c2c(C(=O)NCc3c(C)cc(C)[nH]c3=O)cc(-c3ccc(N4CCNCC4)nc3)cc21 [EZH2i, GSK126]
RAD51 and 53BP1 foci (DNA repair defect): did not recapitulate the DNA repair defect
